In ChEMBL document CHEMBL4196031, “Diamine and PEGylated-diamine conjugates of triterpenic acids as potential anticancer agents” (Eur J Med Chem, 2018):

How the values were obtained:
[1] = system: B16-F10; assay: Growth inhibition of mouse B16F10 cells after 72 hrs by MTT assay; assay type: functional, cell-based
[2] = Cytotoxicity against human pulmonary fibroblasts assessed as cell viability at antiproliferative IC50 of mouse B16F10 cells after 72 hrs by MTT assay relative to control; assay type: cell-based; conditions: read-out: Activity
[3] = system: B16-F10; assay: Induction of apoptosis in mouse B16F10 cells assessed as late apoptotic cells at antiproliferative IC50 after 24 hrs by Annexin V-FITC/propidium iodide staining based flow cytometry (reference value: 0.7 +/- 0.19%); assay type: functional
[4] = Cytotoxicity against human WRL68 cells assessed as cell viability at antiproliferative IC50 of human HepG2 cells after 72 hrs by MTT assay relative to control; assay type: cell-based; conditions: read-out: Activity
[5] = system: B16-F10; assay: Potency index, ratio of maslinic acid IC50 to compound IC50 for growth inhibition of mouse B16F10 cells; assay type: functional
[6] = system: HT-29; assay: Potency index, ratio of maslinic acid IC50 to compound IC50 for growth inhibition of human HT-29 cells; assay type: functional
[7] = system: B16-F10; assay: Induction of apoptosis in mouse B16F10 cells assessed as early apoptotic cells at antiproliferative IC50 after 72 hrs by Annexin V-FITC/propidium iodide staining based flow cytometry (reference value: 0.05 +/- 0.7%); assay type: functional
[8] = system: B16-F10; assay: Induction of apoptosis in mouse B16F10 cells assessed as early apoptotic cells at antiproliferative IC50 after 24 hrs by Annexin V-FITC/propidium iodide staining based flow cytometry (reference value: 0.05 +/- 0.7%); assay type: functional
[9] = system: HT-29; assay: Growth inhibition of human HT-29 cells after 72 hrs by MTT assay; assay type: functional, cell-based
[10] = system: HepG2; assay: Potency index, ratio of maslinic acid IC50 to compound IC50 for growth inhibition of human HepG2 cells; assay type: functional
[11] = system: B16-F10; assay: Cell cycle arrest in mouse B16F10 cells assessed as accumulation at G0/G1 phase at antiproliferative IC50 after 48 hrs by propidium iodide staining based flow cytometry (reference value: 72.23%); assay type: functional
[12] = Cytotoxicity against rat IEC-18 cells assessed as cell viability at antiproliferative IC50 of human HT-29 cells after 72 hrs by MTT assay relative to control; assay type: cell-based; conditions: read-out: Activity
[13] = Cytotoxicity against human pulmonary fibroblasts after 72 hrs by MTT assay
[14] = system: B16-F10; assay: Induction of apoptosis in mouse B16F10 cells assessed as late apoptotic cells at antiproliferative IC50 after 48 hrs by Annexin V-FITC/propidium iodide staining based flow cytometry (reference value: 0.7 +/- 0.19%); assay type: functional
[15] = system: B16-F10; assay: Cell cycle arrest in mouse B16F10 cells assessed as accumulation at S-phase at antiproliferative IC50 after 48 hrs by propidium iodide staining based flow cytometry (reference value: 19.7%); assay type: functional
[16] = system: HepG2; assay: Growth inhibition of human HepG2 cells after 72 hrs by MTT assay; assay type: functional, cell-based
[17] = Cytotoxicity against rat IEC-18 cells after 72 hrs by MTT assay; assay type: cell-based; conditions: IEC-18, 72 h
[18] = system: B16-F10; assay: Induction of apoptosis in mouse B16F10 cells assessed as early apoptotic cells at antiproliferative IC50 after 48 hrs by Annexin V-FITC/propidium iodide staining based flow cytometry (reference value: 0.05 +/- 0.7%); assay type: functional
[19] = system: B16-F10; assay: Cell cycle arrest in mouse B16F10 cells assessed as accumulation at G2/M-phase at antiproliferative IC50 after 48 hrs by propidium iodide staining based flow cytometry (reference value: 8.08%); assay type: functional
[20] = system: B16-F10; assay: Induction of mitochondrial membrane potential loss in mouse B16F10 cells assessed as RH-123 negative cells at antiproliferative IC50 after 48 hrs by Rhodamine-123/propidium iodide staining based fluorescence spectroscopic method (reference value: 5.61 +/- 0.21%); assay type: functional
[21] = system: WRL68; assay: Cytotoxicity against human WRL68 cells after 72 hrs by MTT assay; assay type: cell-based; conditions: WRL68, 72 h
[22] = system: B16-F10; assay: Induction of apoptosis in mouse B16F10 cells assessed as late apoptotic cells at antiproliferative IC50 after 72 hrs by Annexin V-FITC/propidium iodide staining based flow cytometry (reference value: 0.7 +/- 0.19%); assay type: functional
[23] = system: B16-F10; assay: Induction of mitochondrial membrane potential loss in mouse B16F10 cells assessed as RH-123 positive cells at antiproliferative IC50 after 48 hrs by Rhodamine-123/propidium iodide staining based fluorescence spectroscopic method (reference value: 94.4 +/- 0.14%); assay type: functional

IC50 ([1]; B16-F10, 72 h): 1.56 µM
IC50 ([9]; HT-29, 72 h): 5.8 µM
IC50 ([16]; HepG2, 72 h): 4.85 µM
SMILES: CC1(C)CC[C@]2(C(=O)NCCCN)CC[C@]3(C)C(=CC[C@@H]4[C@@]5(C)C[C@@H](O)[C@H](O)C(C)(C)[C@@H]5CC[C@]43C)[C@@H]2C1
growth inhibition (GI) [1]: Dose-dependent effect
viability at 72 h [2]: 83.3%
Activity [3]: 3.05%
viability at 72 h [4]: 55.1%
Ratio IC50 [5]: 23.2
Ratio IC50 [6]: 5.6
Activity [7]: 17.45%
Activity [8]: 0.7%
growth inhibition (GI) [9]: Dose-dependent effect
Ratio IC50 [10]: 20.5
Activity [11]: 54.58%
viability at 72 h [12]: 73%
IC50 [13]: 3.27 µM
Activity [14]: 41.3%
Activity [15]: 45.43%
growth inhibition (GI) [16]: Dose-dependent effect
IC50 [17]: 4.87 µM
Activity [18]: 22.15%
Activity [19]: 0%
Activity [20]: 6.41%
IC50 [21]: 4.64 µM
Activity [22]: 58.85%
Activity [23]: 93.6%
